Experimental data: patent US20260060993A1, “COMPOSITION FOR IMPROVEMENT OF INTESTINAL FLORA” (MEIJI CO., LTD., priority 2022, published 2026)
Entries after “also recorded” stand apart in the source; their conditions may differ.

Experiments:
[1] = test system: Bifidobacterium bacteria; experiment: Human fecal culture system, relative abundance by 16S V3-V4 amplicon sequencing (Test Example 1); assay type: cell-based; details: 1% substance; for Change in relative abundance of Bifidobacterium bacteria: feces of two healthy adults, 2 days at 37° C., anaerobic, pH 6.5, versus control without substance
Description: (§1) Each substance to be evaluated was added at a concentration of 1% to a diluted fecal solution in which feces of healthy adult origin were suspended in the GAM Semisolid without Dextrose “Nissui” (Nissui Pharmaceutical Co., Ltd.) for GAM glycolysis from which agar was removed by filtration. Fecal materials of two individuals were each tested without mixing them. The medium used for the test was allowed to stand in an anaerobic glove box at least overnight before use. For the culture, a microbioreactor BioLector Pro […]-Labs) and a plate with microfluidic channels were used, and the culture was performed for 2 days at 37° C. and 600 rpm in an anaerobic environment while maintaining a constant pH of 6.5 with 1.5 N HCl and sodium hydroxide during the culture. The prebiotic abilities of the added substances were evaluated by comparing the bacterial flora obtained after the culture with that obtained under the control condition in which the substances to be evaluated were not added. DNA was extracted and purified from the diluted fecal solutions after the culture by using Maxwell RSC PureFood GMO & Authentication Kit (Promega), and amplicon sequencing of the V3-V4 region was performed by using MiSeq (Illumina). The resulting fastq files were analyzed with QIIME2 (https://quime2.org/) to calculate the relative abundance of each intestinal bacterium.

[2] = test system: Parabacteroides bacteria; experiment: as above; assay type: cell-based; details: 1% substance, feces of two healthy adults, 2 days at 37° C., anaerobic, pH 6.5, versus control without substance
Description: as §1

[3] = test system: Parabacteroides bacteria; experiment: Human fecal culture, 60 subjects, genus-level analysis (Test Example 3); assay type: cell-based; details: 0.25% substance, n=60 fecal samples, 1 day at 37° C., anaerobic, versus distilled water; Wilcoxon's signed rank test, p=3.59×10^−8
Description: Galactosylkojibiose (trisaccharide fraction) was added at a concentration of 0.25% to a diluted fecal solution in which feces of healthy adult origin were suspended in the GAM Semisolid without Dextrose “Nissui” (Nissui Pharmaceutical Co., Ltd.) from which agar was removed by filtration (n=60). The galactosylkojibiose (trisaccharide fraction) was the fractionated and purified product containing 4′-galactosylkojibiose as the main ingredient prepared in Production Example 2. The fecal samples for 60 subjects were aliquoted under refrigerated conditions immediately after excretion and frozen at −80° C. until use. The test was performed for each of the fecal samples without mixing them. The medium used for the test was allowed to stand in an anaerobic glove box at least overnight before use. For the culture, a 96-well deepwell plate was used, and the culture was performed for 1 day at 37° C. in an anaerobic environment. The prebiotic ability of the added evaluation substance was evaluated by comparing the bacterial flora observed after the culture with that obtained under the control condition in which distilled water was added instead of the evaluation substance. […] The resulting fastq files were analyzed with QIIME2 (https://qiime2.org/) to calculate the relative abundance of each intestinal bacterium.

[4] = target: T1, lactase (Kluyveromyces lactis, UniProt P00723); experiment: Lactase treatment of the trisaccharide fraction, LCMS analysis; assay type: biochemical; details: 10% in phosphate-citrate buffer pH 6.5, 0.1% lactase (GODO-YNL), 40° C.
T1 construct: purchased Godo Shusei Co., Ltd. GODO-YNL
T1 sequence (P00723 whole entry): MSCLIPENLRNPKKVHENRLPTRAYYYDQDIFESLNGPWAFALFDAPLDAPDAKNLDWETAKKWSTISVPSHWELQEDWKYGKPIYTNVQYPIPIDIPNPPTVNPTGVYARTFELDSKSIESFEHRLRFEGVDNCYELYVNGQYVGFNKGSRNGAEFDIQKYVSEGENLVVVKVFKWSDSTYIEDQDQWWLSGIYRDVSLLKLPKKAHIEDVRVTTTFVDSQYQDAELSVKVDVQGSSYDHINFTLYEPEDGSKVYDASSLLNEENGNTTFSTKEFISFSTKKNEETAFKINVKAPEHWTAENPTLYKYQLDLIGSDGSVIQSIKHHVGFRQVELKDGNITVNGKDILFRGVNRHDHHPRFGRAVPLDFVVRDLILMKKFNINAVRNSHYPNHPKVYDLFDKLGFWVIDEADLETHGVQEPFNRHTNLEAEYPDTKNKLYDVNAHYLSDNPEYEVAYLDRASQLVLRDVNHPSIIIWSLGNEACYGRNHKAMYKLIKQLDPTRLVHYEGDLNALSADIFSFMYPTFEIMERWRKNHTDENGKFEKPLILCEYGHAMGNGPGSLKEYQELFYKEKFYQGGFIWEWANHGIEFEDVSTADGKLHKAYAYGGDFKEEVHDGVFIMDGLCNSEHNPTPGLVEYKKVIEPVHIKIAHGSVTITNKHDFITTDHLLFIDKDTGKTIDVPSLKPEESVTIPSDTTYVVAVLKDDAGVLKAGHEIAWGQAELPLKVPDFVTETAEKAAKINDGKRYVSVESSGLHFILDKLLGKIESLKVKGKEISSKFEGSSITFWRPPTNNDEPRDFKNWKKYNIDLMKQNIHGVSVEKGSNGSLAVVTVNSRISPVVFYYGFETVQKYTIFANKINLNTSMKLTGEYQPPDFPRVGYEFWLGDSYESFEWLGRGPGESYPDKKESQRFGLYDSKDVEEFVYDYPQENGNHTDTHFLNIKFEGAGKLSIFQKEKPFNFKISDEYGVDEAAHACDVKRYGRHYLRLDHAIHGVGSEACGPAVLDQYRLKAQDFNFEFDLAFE
Description: The purified trisaccharide fraction was lyophilized and dissolved in a phosphate-citrate buffer, pH 6.5 at a concentration of 10%. Then, 0.1% of lactase (product name GODO-YNL, Godo Shusei Co., Ltd.) was added to the solution, and the enzymatic reaction was allowed at 40° C.

[5] = test system: Parabacteroides distasonis; experiment: Human fecal culture, 60 subjects, species-level analysis (Test Example 3); assay type: cell-based; details: 0.25% substance, n=60 fecal samples, 1 day at 37° C., anaerobic, versus distilled water; Wilcoxon's signed rank order test, p=2.07×10^−8
Description: Galactosylkojibiose (trisaccharide fraction) was added at a concentration of 0.25% to a diluted fecal solution in which feces of healthy adult origin were suspended in the GAM Semisolid without Dextrose “Nissui” (Nissui Pharmaceutical Co., Ltd.) from which agar was removed by filtration (n=60). The galactosylkojibiose (trisaccharide fraction) was the fractionated and purified product containing 4'-galactosylkojibiose as the main ingredient prepared in Production Example 2. The fecal samples for 60 subjects were aliquoted under refrigerated conditions immediately after excretion and frozen at -80° C. until use. The test was performed for each of the fecal samples without mixing them. The medium used for the test was allowed to stand in an anaerobic glove box at least overnight before use. […] The prebiotic ability of the added evaluation substance was evaluated by comparing the bacterial flora observed after the culture with that obtained under the control condition in which distilled water was added instead of the evaluation substance. […] The resulting fastq files were analyzed with QIIME2 (https://qiime2.org/) to calculate the relative abundance of each intestinal bacterium. […] The resulting fastq files were analyzed with QIIME2 (https://qiime2.org/), and confirmed that it was classified as that of […] at the bacterial species level. […]

[6] = test system: bifidobacteria; details: known from Non-patent documents 7 and 8; cited from earlier work

Structure (SMILES)	Increase of relative abundance of Bifidobacterium bacteria compared with kojibiose ([1]; all samples of the two subjects, comparison with kojibiose)	Change in relative abundance of Bifidobacterium bacteria [1]	Change in relative abundance of Parabacteroides bacteria [2]	Change in relative abundance of Parabacteroides bacteria (genus level) [3]	Product formed by lactase treatment [4]	Change in relative abundance of species indicated as “Parabacteroides_” (judged Parabacteroides distasonis) [5]	Effect on growth of bifidobacteria [6]
OCC1O[C@H](OC2C(O)[C@H](O[C@@H]3OC(CO)[C@H](O)C(O)C3O)C(CO)O[C@H]2O)C(O)C(O)[C@@H]1O (stereo partly drawn) [α-D-Glcp-(1→2)-[β-D-Galp-(1→4)-]D-Glcp]	more significantly increased	increased	increase	significant increase	formation of kojibiose	significant increase; also recorded: significantly increased	–
OCC1OC(O)C(O[C@H]2OC(CO)[C@@H](O)[C@H](O)C2O)[C@@H](O)[C@@H]1O (stereo partly drawn) [kojibiose]	–	increased	increase	–	–	–	growth-promoting effect
